# Species on record: Mus musculus
# Experiment: Logarithm of effective dose evaluated using the foot-shock test in mice
# Assay type: functional
# Details: not given
row,SMILES,Log ED50 [mM kg-1]
1,CN1C(=O)CN=C(c2ccccc2F)c2cc([N+](=O)[O-])ccc21 [FLUNITRAZEPAM],2.59
2,CN1C(=O)CN=C(c2ccccc2)c2cc(C#N)ccc21,1.74
3,CN(C)c1ccc2c(c1)C(c1ccccc1Cl)=NCC(=O)N2C,0.61
4,CN1C(=O)CN=C(c2ccccc2Cl)c2cc([N+](=O)[O-])ccc21 [RO-054082],2.12
5,O=C1CN=C(c2ccccc2)c2ccccc2N1 [RO-052921],0.37
6,CN1C(=O)CN=C(c2ccccc2)c2cc(Cl)ccc21 [DIAZEPAM],1.45
7,O=C1CN=C(c2ccccc2)c2cc(F)ccc2N1 [RO-053061],0.4
8,O=C1CN=C(c2ccccc2)c2cc(C(F)(F)F)ccc2N1 [RO-052904],1.48
9,CSc1ccc2c(c1)C(c1ccccc1)=NCC(=O)N2C,0.87
10,O=C1CN=C(c2ccccc2)c2cc([N+](=O)[O-])ccc2N1 [NITRAZEPAM],1.75
11,CSc1ccc2c(c1)C(c1ccccc1)=NCC(=O)N2,1.15
12,N#Cc1ccc2c(c1)C(c1ccccc1)=NCC(=O)N2,0.81
13,CN1C(=O)CN=C(c2ccccc2Cl)c2cc(Cl)ccc21,1.5
14,CN1C(=O)CN=C(c2ccccc2F)c2ccccc21 [RO-054520],0.83
15,CN(C)c1ccc2c(c1)C(c1ccccc1)=NCC(=O)N2C,0.86
16,CN1C(=O)CN=C(c2ccccc2C(F)(F)F)c2cc([N+](=O)[O-])ccc21,1.86
17,CN1C(=O)CN=C(c2ccccc2F)c2cc(Cl)ccc21 [FLUDIAZEPAM],1.78
18,CN1C(=O)CN=C(c2ccccc2)c2cc([N+](=O)[O-])ccc21 [NIMETAZEPAM],2.07

# Target: T1, Phenylethanolamine N-methyltransferase (Homo sapiens) (UniProt P11086)
# T1 sequence (whole entry): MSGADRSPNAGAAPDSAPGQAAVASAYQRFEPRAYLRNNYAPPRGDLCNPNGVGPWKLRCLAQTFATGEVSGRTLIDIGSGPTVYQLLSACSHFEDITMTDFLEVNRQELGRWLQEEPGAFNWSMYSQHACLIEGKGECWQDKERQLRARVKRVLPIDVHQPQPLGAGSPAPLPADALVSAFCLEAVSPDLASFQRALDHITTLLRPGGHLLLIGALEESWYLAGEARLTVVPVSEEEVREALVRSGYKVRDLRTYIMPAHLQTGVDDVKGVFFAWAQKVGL
# Details: Oryctolagus cuniculus
# Description: Inhibition of phenylethanolamine N-methyltransferase(PNMT)activity
row,SMILES,pI50
1,NCc1ccccc1C(F)(F)F,4.64
2,NCc1cc(Cl)ccc1Cl,4.82
3,NCc1ccc(C(F)(F)F)cc1,5.2
4,Cc1ccccc1CN,4.17
5,NCc1cccc(Cl)c1,5.07
6,NCc1cccc(F)c1,4
7,NCc1cccc(C(F)(F)F)c1,5.64
8,NCc1ccc(Cl)cc1Cl,4.68
9,Cc1cccc(CN)c1,3.82
10,NCc1ccccc1F,3.87
11,Cc1cccc(CN)c1C,4.24
12,Cc1ccc(CN)cc1,3.16

# Tested on: Escherichia coli
# Experiment: Logarithm of the inhibitory rate constant against Escherichia coli
# Assay type: functional
# Details: not given
row,SMILES,Log rate constant
1,Cc1c2c(c(O)c3c(O)cccc13)C(=O)C1C(O)=C(C(N)=O)C(=O)[C@@H](N(C)C)[C@@H]1C2 (some centres undefined),1.19 M-1 s-1
2,CN(C)[C@@H]1C(=O)C(C(N)=O)=C(O)[C@@]2(O)C(=O)C3=C(O)c4c(O)ccc([N+](=O)[O-])c4CC3C[C@@H]12 (some centres undefined),2.87 M-1 s-1
3,CN(C)[C@@H]1C(=O)C(C(N)=O)=C(O)[C@@]2(O)C(O)=C3C(=O)c4c(O)cccc4[C@](C)(O)C3C(=O)[C@@H]12 (some centres undefined),2.41 M-1 s-1
4,CN(C)[C@@H]1C(=O)C(C(N)=O)=C(O)[C@@]2(O)C(=O)C3=C(O)c4c(ccc([N+](=O)[O-])c4O)CC3C[C@@H]12 (some centres undefined),1.65 M-1 s-1
5,CN(C)[C@@H]1C(=O)C(C(N)=O)=C(O)[C@@]2(O)C(=O)C3=C(O)c4c(O)ccc(Br)c4CC3C[C@@H]12 (some centres undefined),1.71 M-1 s-1
6,CN(C)[C@@H]1C(=O)C(C(N)=O)=C(O)C2C(=O)C3=C(O)c4c(O)cccc4CC3C[C@H]21 (some centres undefined),0.41 M-1 s-1
7,CN(C)[C@@H]1C(=O)C(C(N)=O)=C(O)C2C(O)C3=C(C[C@H]21)[C@@](C)(O)c1c(Cl)ccc(O)c1C3=O (some centres undefined),-0.47 M-1 s-1
8,CN(C)[C@@H]1C(=O)C(C(N)=O)=C(O)[C@@]2(O)C(=O)C3=C(O)c4c(ccc(N)c4O)CC3C[C@@H]12 (some centres undefined),2.16 M-1 s-1
9,CN(C)[C@@H]1C(=O)C(C(N)=O)=C(O)[C@@]2(O)C(=O)C3=C(O)c4c(O)ccc(N)c4CC3C[C@@H]12 (some centres undefined),2.26 M-1 s-1
10,CN(C)[C@@H]1C(=O)C(C(N)=O)=C(O)[C@@]2(O)C(=O)C3=C(O)c4c(O)ccc(Cl)c4C(O)C3C[C@@H]12 (some centres undefined),2.71 M-1 s-1
11,CN(C)[C@@H]1C(=O)C(C(N)=O)=C(O)[C@@]2(O)C(O)=C3C(=O)c4c(O)ccc(Cl)c4[C@](C)(O)C3C[C@@H]12 (some centres undefined),2.6 M-1 s-1
12,CN(C)c1ccc2c(c1O)C(O)=C1C(=O)[C@]3(O)C(O)=C(C(N)=O)C(=O)[C@@H](N(C)C)[C@@H]3CC1C2 (some centres undefined),1.37 M-1 s-1
13,CN(C)[C@@H]1C(O)=C(C(N)=O)C(=O)[C@@]2(O)C(O)=C3C(=O)c4c(O)cccc4C[C@H]3C[C@@H]12 [SANCYCLINE],1.98 M-1 s-1
14,CN(C)[C@@H]1C(=O)C(C(N)=O)=C(O)[C@@]2(O)C(O)=C3C(=O)c4c(O)cccc4[C@](C)(O)C3C[C@@H]12 (some centres undefined),2.43 M-1 s-1
